Assay results published in article PMC5059489, “Mechanistic evaluation and transcriptional signature of a glutathione S-transferase omega 1 inhibitor” (Nature Communications, 2016).

Columns and labels:
[1] = tested on: HCT116; assay: MTT cytotoxicity GI50, HCT116; format: cell-based, human; conditions: Homo sapiens, HCT-116
Procedure: (§1) Cell proliferation was assessed by a MTT assay. Cancer cells were seeded in 96-well microtitre plates and, after overnight attachment, treated with GSTO1 inhibitors. After 72 h, MTT solution (3 mg ml^−1; 20 μl) was added to each well and cells were incubated for 3 h at 37 °C. After incubation, media from each well was removed and the dark blue formazan crystals formed by live cells were dissolved in DMSO (150 μl per well). The absorbance intensity was measured at 570 nm on a microplate reader (Molecular Devices, Sunnyvale, CA, USA). Cell viability after 24 h treatment was assessed using ApoTox-Glo triplex assay (Promega) according to the manufacturer's protocol. At least three independent dose–response experiments with each concentration tested in triplicate were performed for each cell line.

[2] = tested on: HCT116 cells; assay: Bru-seq nascent RNA profiling; conditions: 24 h treatment
Procedure: The data set was analysed using the DAVID, ingenuity pathway analysis (IPA) and GSEA for pathway identification. […] Data sets with nearly 250 genes containing the gene identifiers and fold changes were uploaded to the IPA web-based application and each gene identifier was mapped to its corresponding gene object in the ingenuity pathways knowledge base. Finally, the biological function genes were ordered by P value of significance and maximum number of genes in the pathway. Bru-Seq data were further analysed using GSEA for exploring the mechanism of cellular action of GSTO1 and its inhibitor. A pre-ranked gene list of the Bru-Seq data set was submitted to GSEA, and enrichment analysis was done based on the Kolmogorov–Smirnov statistic[59][60]. […] For each gene set, the ES (enrichment score) was normalized to account for differences in gene set size and the false discovery rate relative to the normalized enrichment score values was calculated.

[3] = tested on: H1299; assay: MTT cytotoxicity GI50, H1299; format: cell-based; conditions: Homo sapiens, NCI-H1299
Procedure: as §1

[4] = tested on: THP-1 cells; assay: IL-1β secretion from LPS-primed THP-1 cells; format: cell-based; conditions: LPS-primed THP-1, 1.5 h, then ATP 5 mM 30 min, western blot
Procedure: HCT116 cells were seeded in a six-well plate and treated with GSTO1 inhibitors for 24 h. Cells were washed with ice-cold PBS and lysed with a triple detergent lysis buffer supplemented with protease and phosphatase inhibitor cocktail. Lysate was sonicated and centrifuged at 12,000 r.p.m. for 10 min at 4 °C to remove cell debris. Total protein concentration in the supernatant was measured using BCA protein assay kit (Pierce Biotechnology). For IL-1β experiments, THP-1 cells (1 × 10^6 per well) were seeded in a 12-well plate and differentiated overnight with 10 nM phorbol myristate acetate. […] Band intensities were quantified using Image J software. […]
Supplementary Fig. 23. […] (a) ATP-induced IL-1β secretion from LPS-stimulated THP-1 cells was analyzed by ELISA. […] Cytokine secretion level is expressed as a percentage of that released from control cells treated with DMSO. Data are mean readings of duplicate wells. […]
treated with indicated concentrations of C1-27 or GLY (50 µM) for 1.5 h, followed by stimulation with ATP (5 mM) for 30 min. Concentrated supernatant was analyzed by western blotting using anti IL-1β antibody. […] Expression of pro- IL-1β in response to LPS was analyzed by western blotting. […] Representative plots of several gene expression datasets analyzed in Oncomine are shown. […]

[5] = tested on: HCT116 cells; assay: Cell cycle analysis by flow cytometry; format: cell-based, human; conditions: 5 μM, 24 h
Procedure: Cells were seeded at a density of 0.5 × 10^6 per well in a six-well plate. After overnight attachment, cells were treated with C1-27 (5 μM) for 24 h and collected using trypsin. Cells were then washed twice with PBS containing 10% serum and fixed with 70% ethanol overnight at −20 °C. Fixed cells were washed twice in PBS containing 10% serum and stained with 50 μg ml^−1 propidium iodide solution containing 100 μg ml^−1 RNase A for 1 h at 37 °C. Cell cycle was analysed on a BD LSR II flow cytometer (BD Biosciences) and data were analysed using ModFit software.

[6] = tested on: HCT116 cells; assay: Clonogenic survival assay; format: cell-based, human
Procedure: HCT116 cells were seeded at a density of 200 cells per well in a 6-well microtitre plate. After overnight attachment, cells were treated with different concentrations of GSTO1 inhibitors for 24 h. Colonies were allowed to grow in drug-free medium for 7 days and stained with 0.5% crystal violet. For drug combination studies, HCT116 cells (200 per well) were plated in a 12-well plate. C1-27, cisplatin (1 μM, dissolved in 0.9% NaCl), PD98059 (10 μM), LY294002 (10 μM), SP600125 (1 μM) or desferoxamine mesylate (10 μM) were added alone or in combination and colonies were allowed to grow for 7–10 days.

## CN(C)S(=O)(=O)c1cc(NC(=O)CCl)ccc1Cl [C1-27]
[1]
  GI50: 1.2 ± 0.6 µM
[2]
  overlap of transcriptional changes with the inactive control C1-14: < 12%
[3]
  GI50: 1.9 µM
[4]
  IL-1β release: Dose-dependent inhibition
[5]
  S-phase population: increase
[6]; combination with cisplatin, non-cytotoxic concentrations
  effect on cisplatin-induced cytotoxicity: significantly enhance
[6]; sub-micromolar concentrations
  clonogenic survival of HCT116 cells: inhibited
